Measured values: US20220144815A1, “1,3,4-OXADIAZOLES AND THEIR DERIVATIVES AS NEW ANTIFUNGAL AGENTS” (Bayer Aktiengesellschaft, priority 2018, published 2022)

Key:
Puccinia recondita = assay: Example D: in vivo preventive test (brown rust on wheat); settings: 264 h, 500 ppm of tested compound, preventive spray, evaluated 11 days after inoculation, read-out: efficacy
Experimental: Solvent: 5% by volume of dimethyl sulfoxide • 10% by volume of acetone Emulsifier: 1 μL of Tween® 80 per mg of active ingredient The tested compounds were made soluble and homogenized in a mixture of dimethyl sulfoxide/acetone/Tween® 80 and then diluted in water to the desired concentration. The young plants of wheat were treated by spraying the tested compound prepared as described above. Control plants were treated only with an aqueous solution of acetone/dimethyl sulfoxide/Tween® 80. After 24 hours, the plants were contaminated by spraying the leaves with an aqueous suspension of Puccinia recondita spores. The contaminated wheat plants were incubated for 24 hours at 20° C. and at 100% relative humidity and then for 10 days at 20° C. and at 70-80% relative humidity. The test was evaluated 11 days after the inoculation. 0% means an efficacy which corresponds to that of the control plants while an efficacy of 100% means that no disease was observed.

[1] = test system: Colletotrichum lindemuthianum; assay: Example B: in vitro cell test, spore germination and mycelium growth in liquid culture; format: cell-based; settings: 144 h, 20 ppm of tested compound, 6 days incubation, read-out: efficacy (inhibition of fungal growth)
Experimental: • Solvent: dimethyl sulfoxide Culture medium: 14.6 g anhydrous D-glucose (VWR), • 7.1 g mycological peptone (Oxoid), • 1.4 g granulated yeast extract (Merck), QSP 1 liter Inoculum: spore suspension The tested compounds were solubilized in dimethyl sulfoxide and the solution used to prepare the required range of concentrations. The final concentration of dimethyl sulfoxide used in the assay was ≤1%. A spore suspension of Colletotrichum lindemuthianum was prepared and diluted to the desired spore density. The compounds were evaluated for their ability to inhibit spore germination and mycelium growth in liquid culture assay. The compounds were added in the desired concentration to the culture medium with spores. After 6 days incubation, fungi-toxicity of compounds was determined by spectrometric measurement of mycelium growth. Inhibition of fungal growth was determined by comparing the absorbance values in wells containing the tested compounds with the absorbance in control wells without tested compounds.

[2] = Log P by HPLC on reversed phase columns, method [a] (EEC directive 79/831 Annex V.A8); format: physicochemical; settings: reversed phase HPLC column; log P determined according to method [a] (HPLC on reversed phase columns); read-out: logP
How it was run: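 Log P calibrated with C3–C16 straight-chain alkan-2-ones of known Log P, interpolating linearly between retention times. Method per EEC 79/831 Annex V.A8: reversed-phase LC-UV in the acidic range, water/0.1% formic acid and acetonitrile gradient from 10% to 95% acetonitrile.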

Phakopsora pachyrhizi = assay: Example F: in vivo preventive test (soybeans), DMSO/acetone/Tween 80; settings: 288 h, 500 ppm of tested compound, preventive spray, soybean, evaluated 12 days after inoculation, read-out: efficacy
Experimental: Solvent: 5% by volume of dimethyl sulfoxide • 10% by volume of acetone
Emulsifier: 1 μL of Tween® 80 per mg of active ingredient
The tested compounds were made soluble and homogenized in a mixture of dimethyl sulfoxide/acetone/Tween® 80 and then diluted in water to the desired concentration.
The young plants of wheat were treated by spraying the tested compound prepared as described above. Control plants were treated only with an aqueous solution of acetone/dimethyl sulfoxide/Tween® 80.
After 24 hours, the plants were contaminated by spraying the leaves with an aqueous suspension of Phakospora pachyrhizi spores. The contaminated soybean plants were incubated for 24 hours at 24° C. and at 100% relative humidity and then for 11 days at 24° C. and at 70-80% relative humidity.
The test was evaluated 12 days after the inoculation. 0% means an efficacy which corresponds to that of the control plants while an efficacy of 100% means that no disease was observed.

Row | chromatographic logP [2] | Structure (SMILES) | pest or weed control at 500 µg/mL (Puccinia recondita) | inhibition of growth at 20 µg/mL [1] | pest or weed control at 500 µg/mL (Phakopsora pachyrhizi)
1 | 2.95 | FC(F)c1nnc(-c2cnc(OC3(c4ccccc4)CC3)nc2)o1 [I.120, 5-[5-(difluoromethyl)-1,3,4-oxadiazol-2-yl]-2-[(1-phenylcyclopropyl)oxy]pyrimidine] | 70 to 79% | 70 to 79% | 90 to 100%
2 | 2.72 | Fc1cccc(C2(Nc3ncc(-c4nnc(C(F)F)o4)cn3)CC2)c1 [I.145, 5-[5-(difluoromethyl)-1,3,4-oxadiazol-2-yl]-N-[1-(3-fluorophenyl)cyclopropyl]pyrimidin-2-amine] | 90 to 100% | 80 to 89% | 90 to 100%
3 | 3.23 | Cc1ccccc1C1(Nc2ncc(-c3nnc(C(F)F)o3)cn2)CC1 [I.132, 5-[5-(difluoromethyl)-1,3,4-oxadiazol-2-yl]-N-[1-(2-methylphenyl)cyclopropyl]pyrimidin-2-amine] | 80 to 89% | 70 to 79% | 90 to 100%
4 | 3.14 | FC(F)c1nnc(-c2cnc(NC(c3ccccc3)C3CC3)nc2)o1 (racemic) [I.136, N—[(RS)-cyclopropyl(phenyl)methyl]-5-[5-(difluoromethyl)-1,3,4-oxadiazol-2-yl]pyrimidin-2-amine] | 80 to 89% | 80 to 89% | 90 to 100%
5 | 3.06 | COc1ccccc1C1(Nc2ncc(-c3nnc(C(F)F)o3)cn2)CC1 [I.155, 5-[5-(difluoromethyl)-1,3,4-oxadiazol-2-yl]-N-[1-(2-methoxyphenyl)cyclopropyl]pyrimidin-2-amine] | 80 to 89% |  | 90 to 100%
6 | 2.86 | C#CC(Nc1ncc(-c2nnc(C(F)F)o2)cn1)c1ccccc1 (racemic) [I.118, 5-[5-(difluoromethyl)-1,3,4-oxadiazol-2-yl]-N-[(1RS)-1-phenylprop-2-yn-1-yl]pyrimidin-2-amine] | 80 to 89% | 90 to 100% | 90 to 100%
7 | 2.89 | CC(Nc1ncc(-c2nnc(C(F)F)o2)cn1)c1ccc(F)cc1 (racemic) [I.125, 5-[5-(difluoromethyl)-1,3,4-oxadiazol-2-yl]-N-[(1RS)-1-(4-fluorophenyl)ethyl]pyrimidin-2-amine] | 90 to 100% | 80 to 89% | 90 to 100%
8 | 3.47 | Fc1ccccc1C1(Nc2ncc(-c3nnc(C(F)(F)F)o3)cn2)CC1 [I.165, N-[1-(2-fluorophenyl)cyclopropyl]-5-[5-(trifluoromethyl)-1,3,4-oxadiazol-2-yl]pyrimidin-2-amine] | 90 to 100% | 80 to 89% | 90 to 100%
9 | 3.13 | CC(Oc1ncc(-c2nnc(C(F)F)o2)cn1)c1ccc(F)cc1 (racemic) [I.127, 5-[5-(difluoromethyl)-1,3,4-oxadiazol-2-yl]-2-{[(1RS)-1-(4-fluorophenyl)ethyl]oxy}pyrimidine] | 70 to 79% |  | 90 to 100%
10 | 3.16 | CCC(Nc1ncc(-c2nnc(C(F)F)o2)cn1)c1ccccc1 (racemic) [I.122, 5-[5-(difluoromethyl)-1,3,4-oxadiazol-2-yl]-N-[(1RS)-1-phenylpropyl]pyrimidin-2-amine] | 90 to 100% | 90 to 100% | 90 to 100%
